One assay relates to ct-DNA. Put plainly: UV-Vis absorption titration with ct-DNA (Kb). Particulars: band at 320 nm, cacodylate/NaCl buffer pH 7.25, 1 h. Format: binding, calf. The protocol:
For the UV–Vis, fluorescence and circular dichroism assays the concentration of ct-DNA was determined on a Varian Cary 100 Scan spectrophotometer from the absorption at 260 nm and the corresponding molar absorptivity of 6600 M^−1 cm^−1 (nucleobase concentration). The stock solutions of the coordination compounds and the free ligands were prepared in cacodylate/NaCl buffer (1 mM cacodylic acid and 20 mM sodium chloride) at pH 7.25. The final samples contained a DMSO concentration of 0.2%.
Absorption titration experiments were carried out by adding increasing concentrations of ct-DNA (0–25 µM) to 10 µM of the compounds in a final volume of 2 mL. The samples were incubated for 1 h at 37 °C, and spectra were collected on a Varian Cary 100 Scan spectrophotometer. For these assays the charge-transfer band of the compounds was followed at 320 nm. The intrinsic binding constant (Kb) was determined from the titration data using Eq. 2:2 DNA/εα-εf=DNA/ε0-εf+1/Kbε0-εf where εa, ε0 and εf are respectively, the molar extinction coefficients of […].

Another assay relates to Entamoeba histolytica. The following applies: cited from earlier work.

In article PMC11001709, “Anti-toxoplasma activity and DNA-binding of copper(II) and zinc(II) coordination compounds with 5-nitroimidazole-based ligands” (Journal of Biological Inorganic Chemistry, 2023) one finds Kb and MIC data, which are given here for two compounds.

What is called MIC is the lowest concentration that inhibits growth of the organism.

In the assay on ct-DNA, `Cc1ncc([N+](=O)[O-])n1CCCl.Cc1ncc([N+](=O)[O-])n1CCCl.[Br][Cu][Br]` [[Cu(cenz)2Br2]] yielded a Kb of 450000 M⁻¹.
For the compound `Cc1ncc([N+](=O)[O-])n1CC(O)CCl.Cc1ncc([N+](=O)[O-])n1CC(O)CCl.[Cl][Zn][Cl]` (centres unmarked) [[Zn(onz)2Cl2]], in the assay on Entamoeba histolytica, the minimum inhibitory concentration (MIC) is 6.25 µM.
